In brackets after ≈: the same amount, converted by molar mass. Several values for one entry are separate records, joined by “and”; a condition that tells them apart may be missing. Equal entries are not always repeated. Where a SMILES comes first, the peptide text is derived from it. Bridges are numbered along the chain shown (N, C = ends). Where no end group is shown, it is not given here. [ ]: non-standard residue; d: D form. The star is where a group is joined. X1 = CC[C@H](C)CCCCC(=O)*; Dab = NCC[C@H](N)C(=O)O
Key:
E.coli ATCC 259922 = assay: Antimicrobial assay; assay type: cell-based, Escherichia coli; details: CaMHB, 5 × 10^5 CFU mL^−1, 37 °C, 20 h, visual, duplicate
S. aureus ATCC 43300 = assay: microbe, parasite or virus in culture; assay type: cell-based, Staphylococcus aureus; details: for Minimum inhibitory concentration: S. aureus ATCC 43300, CaMHB, 5 × 10^5 CFU mL^−1, 37 °C, 20 h, visual, duplicate
B. subtilis ATCC 6051 = assay: microbe, parasite or virus in culture; assay type: cell-based, Bacillus subtilis; details: for Minimum inhibitory concentration: B. subtilis ATCC 6051, CaMHB, 5 × 10^5 CFU mL^−1, 37 °C, 20 h, visual, duplicate
human red blood cells = assay: Hemolysis assay; assay type: cell-based
HEK293 cells = assay: Cytotoxicity assay; assay type: cell-based; details: HEK293, 24 h at 37 °C, resazurin fluorescence; two independent experiments of duplicate assays (n = 2)
[1] = system: Gram negative and Gram-positive bacterial pathogens; assay: Antimicrobial assay, summary over the bacterial panel; assay type: cell-based; details: range over both strains

Molecule | Minimum inhibitory concentration (E.coli ATCC 259922) [µM] | MIC (S. aureus ATCC 43300; Staphylococcus aureus, ATCC43300, 20 h, read-out: Minimum inhibitory concentration) [µM] | MIC (B. subtilis ATCC 6051; Bacillus subtilis, ATCC6051, 20 h, read-out: Minimum inhibitory concentration) [µM] | Minimum inhibitory concentration (S. aureus ATCC 43300) [µM] | Minimum inhibitory concentration (B. subtilis ATCC 6051) [µM] | Hemolysis at fixed concentration (human red blood cells; 100 μM peptide) | Hemolysis at fixed concentration (human red blood cells; 300 μM peptide) | Cytotoxicity (CC50), 50% death of HEK293 cells (HEK293 cells) | MIC against Gram-positive bacteria (Staphylococcus aureus and B. subtilis) [1] [µM]
CC[C@H](C)CCCCC(=O)N[C@@H](CCN)C(=O)N[C@H](C(=O)N[C@@H](CCN)C(=O)N[C@H]1CCNC(=O)[C@H]([C@@H](C)O)NC(=O)[C@H](CCN)NC(=O)[C@H](CCN)NC(=O)[C@H](CC(C)C)NC(=O)[C@@H](CC(C)C)NC(=O)[C@H](CCN)NC1=O)[C@@H](C)O [Colistin, colistin, reference compound] (X1-[Dab]T[Dab][Dab][Dab][dL]L[Dab][Dab]T; lactam 4-C (inferred); N-terminus assumed) | 0.02 to 0.11 |  |  |  |  |  |  |  | 
CN[C@H](CC(C)C)C(=O)N[C@H]1C(=O)N[C@@H](CC(N)=O)C(=O)N[C@H]2C(=O)N[C@H]3C(=O)N[C@H](C(=O)N[C@H](C(=O)O)c4cc(O)cc(O)c4-c4cc3ccc4O)[C@H](O)c3ccc(c(Cl)c3)Oc3cc2cc(c3O[C@@H]2O[C@H](CO)[C@@H](O)[C@H](O)[C@H]2O[C@H]2C[C@](C)(N)[C@H](O)[C@H](C)O2)Oc2ccc(cc2Cl)[C@H]1O [Vancomycin, vancomycin, reference compound] |  | 0.69 to 1.38 (≈ 1 to 2 µg/mL) | 0.17 to 0.35 (≈ 0.246 to 0.507 µg/mL) |  |  |  |  |  | 
AGTKEWLNKAKDFIKEKGLGMLSAAANAALN [Nc3b] | >40 |  |  | >40 | >40 | no hemolysis | no hemolysis |  | 
FLGALLKIGAKLLPSVVGLFKKKQQ [Na1b] | 5.9 to 11.8 |  |  | 0.3 to 5.9 | 0.18 to 2.9 |  |  | 4.5 to 5.9 µM | 
FVKELWDKVKKMGSAAWSAAKGAFA [Nc2a] | 11.7 to 46.9 |  |  | >40 | 5.9 to 11.8 | no hemolysis |  | > 40 µM and 48.2 to 56.9 µM | 
FWGAAAKMLGKALPGLISMFQKN [Nc1a] | 25.8 to 51.6 |  |  | 2.9 to 5.9 | 1.48 to 5.9 |  |  | 12.6 to 13.5 µM | 1.48 to 5.9
GWKDWLNKAKDFIKEKGPEILRAAANAAIN [Nc3a] | 2.3 to 4.7 |  |  | 23.7 to 47.4 | 1.48 to 2.9 | no hemolysis |  |  | 
